According to patent US10590128B2, “6,7,8,9-tetrahydro-5H-pyrido[2,3-d]azepine dopamine D3 ligands” (Pfizer Inc., priority 2016, dated 2020):

How the values were obtained:
[1] = target: human dopamine D2 receptor (hD2R) (Homo sapiens, UniProt P14416); assay: Human D2 receptor binding assay ([^3H]-Spiperone); conditions: CHO cells expressing hD2R, geometric mean of 2-5 determinations unless marked b (single determination)
[2] = target: human dopamine D3 receptor (hD3R) (Homo sapiens, UniProt P35462); assay: Human D3 receptor binding assay ([^3H]-7-OH-DPAT); conditions: CHO cells expressing hD3R, geometric mean of 2-5 determinations unless marked b (single determination), read-out: hD3 in CHO cells Ki
Sequence of human dopamine D3 receptor (hD3R) (P35462 whole entry): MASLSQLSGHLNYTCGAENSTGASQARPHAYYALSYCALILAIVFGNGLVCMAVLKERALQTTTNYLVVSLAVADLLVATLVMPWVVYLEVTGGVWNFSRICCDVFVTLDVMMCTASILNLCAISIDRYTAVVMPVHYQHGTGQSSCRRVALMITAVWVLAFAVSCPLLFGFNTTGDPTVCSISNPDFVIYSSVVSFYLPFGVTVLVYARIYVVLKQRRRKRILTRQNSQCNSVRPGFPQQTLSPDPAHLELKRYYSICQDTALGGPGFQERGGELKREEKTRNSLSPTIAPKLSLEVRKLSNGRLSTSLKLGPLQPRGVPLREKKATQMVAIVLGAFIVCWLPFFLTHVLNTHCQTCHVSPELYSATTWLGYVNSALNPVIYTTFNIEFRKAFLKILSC

Sequence of human dopamine D2 receptor (hD2R) (P14416 whole entry): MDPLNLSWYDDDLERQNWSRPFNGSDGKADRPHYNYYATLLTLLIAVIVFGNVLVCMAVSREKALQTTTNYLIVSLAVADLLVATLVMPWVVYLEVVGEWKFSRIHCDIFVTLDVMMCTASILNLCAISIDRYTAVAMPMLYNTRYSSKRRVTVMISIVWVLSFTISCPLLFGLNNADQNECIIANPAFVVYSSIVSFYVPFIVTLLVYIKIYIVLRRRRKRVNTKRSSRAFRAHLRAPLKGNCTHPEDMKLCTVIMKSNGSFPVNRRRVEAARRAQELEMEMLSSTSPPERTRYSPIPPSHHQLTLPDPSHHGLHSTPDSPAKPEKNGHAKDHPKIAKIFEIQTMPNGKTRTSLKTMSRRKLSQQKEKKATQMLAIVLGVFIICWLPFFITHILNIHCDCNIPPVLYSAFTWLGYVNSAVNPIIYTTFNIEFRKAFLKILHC

SMILES	Ki [1]	Ki [2]
COc1nc2c(cc1NS(=O)(=O)c1ccc(C3(C(F)(F)F)CC3)cc1)CCN(C)CC2 [Example 55, N-(2-methoxy-7-methyl-6,7,8,9-tetrahydro-5H-pyrido[2,3-d]azepin-3-yl)-4-[1-(trifluoromethyl)cyclopropyl]benzenesulfonamide]	29.1 nM	0.52 nM
COc1nc2c(cc1NS(=O)(=O)c1ccc(OC(C)(C)C)nc1)CCN(C)CC2 [Example 103, 6-tert-butoxy-N-(2-methoxy-7-methyl-6,7,8,9-tetrahydro-5H-pyrido[2,3-d]azepin-3-yl)pyridine-3-sulfonamide]	45.2 nM	1.85 nM
CCN1CCc2cc(NS(=O)(=O)c3ccc(OC(F)F)cc3)c(OC)nc2CC1 [Example 59, 4-(difluoromethoxy)-N-(7-ethyl-2-methoxy-6,7,8,9-tetrahydro-5H-pyrido[2,3-d]azepin-3-yl)benzenesulfonamide]	2310 nM	11.6 nM
COc1nc2c(cc1NS(=O)(=O)c1ccc(C3(F)CCOCC3)cc1)CCN(C)CC2 [Example 80, 4-(4-fluorotetrahydro-2H-pyran-4-yl)-N-(2-methoxy-7-methyl-6,7,8,9-tetrahydro-5H-pyrido[2,3-d]azepin-3-yl)benzenesulfonamide]	238 nM	1.77 nM
COc1nc2c(cc1NS(=O)(=O)c1ccc(O[C@H]3CCOC3)cc1)CCN(C)CC2 [Example 91, N-(2-methoxy-7-methyl-6,7,8,9-tetrahydro-5H-pyrido[2,3-d]azepin-3-yl)-4-[(3S)-tetrahydrofuran-3-yloxy]benzenesulfonamide]	208 nM	3.37 nM
CCN1CCc2cc(NS(=O)(=O)c3ccc([C@H]4C[C@H](OCCF)C4)cc3)c(OC)nc2CC1 [Example 20, N-(7-ethyl-2-methoxy-6,7,8,9-tetrahydro-5H-pyrido[2,3-d]azepin-3-yl)-4-[trans-3-(2-fluoroethoxy)cyclobutyl]benzenesulfonamide]	116 nM	1.74 nM
COc1nc2c(cc1NS(=O)(=O)c1ccc(C3(F)CCC(OC)CC3)cc1)CCN(C)CC2 (single isomer, unassigned) [Example 39, 4-(cis-1-fluoro-4-methoxycyclohexyl)-N-(2-methoxy-7-methyl-6,7,8,9-tetrahydro-5H-pyrido[2,3-d]azepin-3-yl)benzenesulfonamide]	561 nM	1.95 nM
CCO[C@H]1C[C@@H](c2ccc(S(=O)(=O)Nc3cc4c(nc3OC)CCN(C)CC4)cc2)C1 [Example 21, 4-(cis-3-ethoxycyclobutyl)-N-(2-methoxy-7-methyl-6,7,8,9-tetrahydro-5H-pyrido[2,3-d]azepin-3-yl)benzenesulfonamide]	25.5 nM	0.967 nM
CCN1CCc2cc(NS(=O)(=O)c3ccc(C4CCCCC4)nc3)c(OC)nc2CC1 [Example 114, 6-cyclohexyl-N-(7-ethyl-2-methoxy-6,7,8,9-tetrahydro-5H-pyrido[2,3-d]azepin-3-yl)pyridine-3-sulfonamide]	146 nM	3.15 nM
COc1nc2c(cc1NS(=O)(=O)c1ccc([C@H]3C[C@H](OC)C3)cc1)CCN(C)CC2 [Example 76, 4-(trans-3-methoxycyclobutyl)-N-(2-methoxy-7-methyl-6,7,8,9-tetrahydro-5H-pyrido[2,3-d]azepin-3-yl)benzenesulfonamide]	203 nM	1.28 nM
COc1nc2c(cc1NS(=O)(=O)c1ccc([C@@H](C)OC)cc1)CCN(C)CC2 [Example 90, 4-[(1R)-1-methoxyethyl]-N-(2-methoxy-7-methyl-6,7,8,9-tetrahydro-5H-pyrido[2,3-d]azepin-3-yl)benzenesulfonamide]	207 nM	1.93 nM
COc1nc2c(cc1NS(=O)(=O)c1ccc(C3(F)CCCCC3)nc1)CCN(C)CC2 [Example 19, 6-(1-fluorocyclohexyl)-N-(2-methoxy-7-methyl-6,7,8,9-tetrahydro-5H-pyrido[2,3-d]azepin-3-yl)pyridine-3-sulfonamide]	91.2 nM	2.76 nM
CCN1CCc2cc(NS(=O)(=O)c3ccc([C@]4(F)C[C@H](OC)C4)cc3)c(OC)nc2CC1 [Example 96, N-(7-ethyl-2-methoxy-6,7,8,9-tetrahydro-5H-pyrido[2,3-d]azepin-3-yl)-4-(trans-1-fluoro-3-methoxycyclobutyl)benzenesulfonamide]	317 nM	2.79 nM
COc1nc2c(cc1NS(=O)(=O)c1ccc(C3(OC)CCCC3)cc1)CCN(C)CC2 [Example 95, 4-(1-methoxycyclopentyl)-N-(2-methoxy-7-methyl-6,7,8,9-tetrahydro-5H-pyrido[2,3-d]azepin-3-yl)benzenesulfonamide]	45.3 nM	0.6 nM
COc1nc2c(cc1NS(=O)(=O)c1ccc(C(C)OC)cc1)CCN(C)CC2 (centres unmarked) [Example 32, 4-(1-methoxyethyl)-N-(2-methoxy-7-methyl-6,7,8,9-tetrahydro-5H-pyrido[2,3-d]azepin-3-yl)benzenesulfonamide]	204 nM	1.05 nM
CCN1CCc2cc(NS(=O)(=O)c3ccc(C)c(F)c3)c(OC)nc2CC1 [Example 35, N-(7-ethyl-2-methoxy-6,7,8,9-tetrahydro-5H-pyrido[2,3-d]azepin-3-yl)-3-fluoro-4-methylbenzenesulfonamide]	995 nM	3.7 nM
COc1nc2c(cc1NS(=O)(=O)c1ccc(C3CCCCO3)cc1)CCN(C)CC2 (centres unmarked) [Example 6, N-(2-Methoxy-7-methyl-6,7,8,9-tetrahydro-5H-pyrido[2,3-d]azepin-3-yl)-4-(tetrahydro-2H-pyran-2-yl)benzenesulfonamide]	54.6 nM	0.866 nM
CCO[C@H]1C[C@H](c2ccc(S(=O)(=O)Nc3cc4c(nc3OC)CCN(C)CC4)cc2)C1 [Example 22, 4-(trans-3-ethoxycyclobutyl)-N-(2-methoxy-7-methyl-6,7,8,9-tetrahydro-5H-pyrido[2,3-d]azepin-3-yl)benzenesulfonamide]	30.3 nM	2.64 nM
COc1nc2c(cc1NS(=O)(=O)c1cnc(OC3CCC3)c(C)c1)CCN(C)CC2 [Example 126, 6-(cyclobutyloxy)-N-(2-methoxy-7-methyl-6,7,8,9-tetrahydro-5H-pyrido[2,3-d]azepin-3-yl)-5-methylpyridine-3-sulfonamide]	10.9 nM	1.85 nM

Further molecules by falling Ki [1], results first:

Ki [1]	Ki [2]	SMILES
718 nM	7.56 nM	COc1nc2c(cc1NS(=O)(=O)c1ccc(OC3CCOCC3)cc1)CCN(C)CC2 [Example 78, N-(2-methoxy-7-methyl-6,7,8,9-tetrahydro-5H-pyrido[2,3-d]azepin-3-yl)-4-(tetrahydro-2H-pyran-4-yloxy)benzenesulfonamide]
651 nM	6.84 nM	COc1nc2c(cc1NS(=O)(=O)c1ccc(C3CCOC(C)C3)cc1)CCN(C)CC2 (single isomer, unassigned) [Example 88]
294 nM	2 nM	CCN1CCc2cc(NS(=O)(=O)c3ccc(C4CCCCO4)cc3)c(OC)nc2CC1 (racemic) [Example 70, N-(7-ethyl-2-methoxy-6,7,8,9-tetrahydro-5H-pyrido[2,3-d]azepin-3-yl)-4-(tetrahydro-2H-pyran-2-yl)benzenesulfonamide]
177 nM	2.31 nM	COc1nc2c(cc1NS(=O)(=O)c1ccc(C3CC(F)(F)CCO3)cc1)CCN(C)CC2 (single isomer, unassigned) [Example 41]
162 nM	2.12 nM	CCN1CCc2nc(OC)c(NS(=O)(=O)c3ccc(C(C)C)cc3)cc2C(C)C1 (centres unmarked) [Example 56, N-(7-ethyl-2-methoxy-5-methyl-6,7,8,9-tetrahydro-5H-pyrido[2,3-d]azepin-3-yl)-4-(propan-2-yl)benzenesulfonamide]
128 nM	4.58 nM	COc1nc2c(cc1NS(=O)(=O)c1ccc(OC3CCCC3)nc1)CCN(CCCF)CC2 [Example 122, 6-(cyclopentyloxy)-N-[7-(3-fluoropropyl)-2-methoxy-6,7,8,9-tetrahydro-5H-pyrido[2,3-d]azepin-3-yl]pyridine-3-sulfonamide]
76 nM	1.67 nM	COc1nc2c(cc1NS(=O)(=O)c1ccc([C@H](C)OC)cc1)CCN(C)CC2 [Example 89, 4-[(1S)-1-methoxyethyl]-N-(2-methoxy-7-methyl-6,7,8,9-tetrahydro-5H-pyrido[2,3-d]azepin-3-yl)benzenesulfonamide]
54 nM	1.28 nM	CCO[C@H]1C[C@@H](c2ccc(S(=O)(=O)Nc3cc4c(nc3OC)CCN(CC)CC4)cc2)C1 [Example 120, 4-(cis-3-ethoxycyclobutyl)-N-(7-ethyl-2-methoxy-6,7,8,9-tetrahydro-5H-pyrido[2,3-d]azepin-3-yl)benzenesulfonamide]
38.8 nM	1.75 nM	COc1nc2c(cc1NS(=O)(=O)c1ccc(C3CCCCC3)nc1)CCN(C)CC2 [Example 1, 6-Cyclohexyl-N-(2-methoxy-7-methyl-6,7,8,9-tetrahydro-5H-pyrido[2,3-d]azepin-3-yl)pyridine-3-sulfonamide]
5.41 nM	0.57 nM	CCCc1ccc(S(=O)(=O)Nc2cc3c(nc2OC)CCN(C)CC3)cc1 [Example 118, N-(2-methoxy-7-methyl-6,7,8,9-tetrahydro-5H-pyrido[2,3-d]azepin-3-yl)-4-propylbenzenesulfonamide]
4.07 nM	1.24 nM	COc1nc2c(cc1NS(=O)(=O)c1ccc(OC3CCCC3)nc1C)CCN(C)CC2 [Example 128, 6-(cyclopentyloxy)-N-(2-methoxy-7-methyl-6,7,8,9-tetrahydro-5H-pyrido[2,3-d]azepin-3-yl)-2-methylpyridine-3-sulfonamide]
3.91 nM	0.39 nM	COc1nc2c(cc1NS(=O)(=O)c1ccc([C@H]3CCCCO3)c(C)c1)CCN(C)CC2 [Example 104, N-(2-methoxy-7-methyl-6,7,8,9-tetrahydro-5H-pyrido[2,3-d]azepin-3-yl)-3-methyl-4-[(2R)-tetrahydro-2H-pyran-2-yl]benzenesulfonamide]
